The values that follow come from patent US10906884B2, “Benzodiazepine derivatives as CCK2/gastrin receptor antagonists” (Trio Medicines Ltd, priority 2014, dated 2021).

Converted amounts (≈) assume the structure as drawn. Where two headings read alike, the source gives them in different places.

Data set [1] addresses T1, CCK2 (human) (Homo sapiens, UniProt P32239).
T1 sequence (P32239 1-447): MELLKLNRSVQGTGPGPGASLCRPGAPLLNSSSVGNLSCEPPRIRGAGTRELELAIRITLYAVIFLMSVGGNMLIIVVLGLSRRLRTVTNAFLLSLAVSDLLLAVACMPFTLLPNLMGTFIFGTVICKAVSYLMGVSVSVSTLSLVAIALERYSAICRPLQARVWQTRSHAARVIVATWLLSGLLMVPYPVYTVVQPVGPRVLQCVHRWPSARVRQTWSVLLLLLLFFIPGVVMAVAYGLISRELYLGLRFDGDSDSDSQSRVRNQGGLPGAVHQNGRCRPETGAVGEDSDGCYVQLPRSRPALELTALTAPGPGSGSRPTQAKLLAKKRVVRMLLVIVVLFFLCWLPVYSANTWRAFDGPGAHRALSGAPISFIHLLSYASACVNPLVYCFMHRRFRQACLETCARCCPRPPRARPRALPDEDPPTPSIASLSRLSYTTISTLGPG
The following applies: cited from earlier work.

The subject of a further data set is panic attacks. The following applies: patients; cited from earlier work.
For data set [2], the system named is gastrin-stimulated acid secretion. The following applies: oral, healthy men; cited from earlier work.
For data set [3] the following is noted: in vivo; cited from earlier work.
For data set [4] the following is noted: cited from earlier work.
A further data set addresses T2, CCK1 (human) (Homo sapiens, UniProt P32238).
T2 construct: expressed in transfected cells; host or cells: CHO cells
T2 sequence (P32238 1-428): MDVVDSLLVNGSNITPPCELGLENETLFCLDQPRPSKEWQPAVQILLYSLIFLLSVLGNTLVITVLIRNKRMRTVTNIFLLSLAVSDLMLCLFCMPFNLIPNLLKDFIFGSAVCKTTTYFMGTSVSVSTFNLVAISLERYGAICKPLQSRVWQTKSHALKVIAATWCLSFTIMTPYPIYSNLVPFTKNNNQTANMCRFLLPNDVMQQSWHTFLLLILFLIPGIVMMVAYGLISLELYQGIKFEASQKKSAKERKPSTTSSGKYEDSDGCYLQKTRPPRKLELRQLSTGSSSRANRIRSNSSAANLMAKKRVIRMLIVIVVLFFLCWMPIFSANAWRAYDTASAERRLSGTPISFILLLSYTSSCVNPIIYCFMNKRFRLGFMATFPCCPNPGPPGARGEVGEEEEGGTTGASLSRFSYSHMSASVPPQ
In words: CCK1 receptor functional assay (antagonist effect, cAMP, HTRF). It counts as cell-based. The note with it: stimulus CCK-8s 300 nM, 10 min 37° C., CHO cells. The source says: (§1) (TR2) and (TR3) were compared with YF476 and YM022 in CCK1 and CCK2 receptor functional assays with the following assay criteria.
(§2) The potency of the antagonists is expressed as IC50, the concentration of antagonist that causes a half-maximum inhibition of the control agonist response. The affinity of the antagonist for the receptor is expressed as KB, the concentration of antagonist, which would occupy 50% of the receptors at equilibrium.
(In general: In TR-FRET formats the signal depends on donor and acceptor labels being close together.)

For the next data set, the system named is panel of 80 receptors. In words: Receptor binding screen, radiolabelled ligands, scintillation counting. The note with it: other than CCK2 and CCK1. On the procedure:
The potential of (TR2) and (TR3) to bind to other cellular and nuclear receptors was tested in a panel of 80 receptors. The assay used radiolabelled receptor ligands (agonist or antagonist, depending on the receptor), and the ability of the test compounds to inhibit ligand binding was measured by scintillation counting.

The target of data set [5] is T1, CCK2 (human). Briefly: CCK2 receptor functional assay (antagonist effect, cAMP, HTRF). The note with it: for IC50 / Kb: stimulus CCK-8s 10 nM, 10 min 37° C., CHO cells; for IC50: read-out: CCK2 IC50; for Kb: read-out: CCK2 KB. The format is cell-based. The arrangement: expressed in transfected cells; host or cells: CHO cells.
From the text: as §1, §2

Data set [6] relates to AGSGR cells (gastric adenocarcinoma cell line transfected with human gastrin/CCK2 receptor gene). Briefly: Sulphorhodamine-B (SRB) proliferation assay, G17-treated cells. The note with it: G17 10 nM. The format is cell-based. As to the method:
The potency of (TR2) and (TR3) was tested in a sulphorhodamine-B (SRB) proliferation assay in a human gastric adenocarcinoma cell line stably transfected with the human gastrin/CCK2 receptor gene (AGSGR). SRB is a fluorescent dye that binds to proteins, so cells with a high rate of protein synthesis (proliferative cells) will show high levels of fluorescence in the SRB assay. […] (TR2) and (TR3) were compared with the positive controls YF476 and YM022.
(In general: In SRB staining, fixed cells bind dye roughly in proportion to their protein.)

Data set [7] concerns pentagastrin-stimulated gastric acid secretion. Briefly: Pentagastrin-stimulated gastric acid secretion in conscious rats with a chronic gastric fistula. The format is in vivo. The following applies: Rattus norvegicus, sc, read-out: ED50, inhibition of pentagastrin-stimulated gastric acid secretion. As to the method: The effect of subcutaneous injections of YF476, (TR2) and (TR3) on pentagastrin-stimulated gastric acid secretion was tested in conscious rats with a chronic gastric fistula.

A short description of data set [8]: Pharmacokinetics in healthy subjects, single oral dose, API in capsule. The following applies: human, in vivo, po, 100 mg. On the procedure:
In an initial study, healthy volunteers took a single oral dose of 100 mg (TR2) as an active pharmaceutical ingredient (API) in a capsule. Plasma concentrations were measured.
In further clinical studies, healthy volunteers (n=8) took single oral doses of 5, 15, 50 and 100 mg (TR2) as an active pharmaceutical ingredient (API) in a capsule. (Capsule formulation TR2 powder (API) in a hard gelatin capsule, no excipients, no processing). Plasma concentrations were measured.
Healthy volunteers (n=8) took single oral doses of 5, 15, 25 and 50 mg (TR2-A) as API in a capsule (TR2-A (crystalline) in hard gelatin capsule with no excipient, no processing of the API). Plasma concentrations of (TR2) and (TR2-A) were measured. The area under the curve of plasma concentrations of (TR2) after a single oral dose of 50 mg of (TR2-A) API (AUC0-24 h=212.5) was about the same as that observed for a similar formulation of a single oral dose of (TR2) 100 mg (AUC0-24 h=241.5).

Data set [9] in a line: Aqueous solubility study in Britton-Robinson's buffer (HPLC-UV). The format is physicochemical. The note with it: aqueous buffer, thermodynamic from solid, ambient temperature overnight. On the procedure:
The test compound (2.5 mg of solid; n=1) was weighed in a clear glass vial and Britton-Robinson's buffer (0.5 mL) was added (pH 2.01, pH 3.06, pH 4.06, pH 5.08, pH 5.99, pH 6.98, and pH 8.16). The solution was agitated at ambient temperature overnight using a vial roller system, and then filtered (0.45 μm pore size; without pre-saturation). Two aliquots (50 μL) were sampled from the filtrate and diluted with one volume of 0.1 N hydrochloric acid and methanol (1:1 v/v) before analysis by HPLC-UV. A standard was prepared in DMSO at 10 mg/mL (n=1) which was then diluted 10-fold in 0.1 N hydrochloric acid and methanol (1:1 v/v) to give a 1 mg/mL solution. The concentration of test compound in the filtrate was quantified relative to the concentration standard.
Analysis was done using a gradient HPLC-UV system with a total cycle time of 6 min. The UV detection between 220 nm and 300 nm was done using a photodiode array detector.
The values given in the table above are for crystalline YF476 and (TR2-A) and amorphous (TR1).

Data set [10] is described as follows: YF476 serum concentrations and bioavailability in healthy subjects (background). It counts as in vivo, human. The source says:
Bioavailability can be improved by preparing and administering a formulation of amorphous YF476, but this requires stabilisation such as in the form of a solid dispersion on hydroxypropyl methyl cellulose by spray-drying. Even with this processing, bioavailability of YF476 was still low. […] However, it would be beneficial to provide a CCK2/gastrin receptor antagonist where administration with food is not required.

For the molecule `Cc1cccc(NC(=O)N[C@@H]2N=C(c3ccccc3)c3ccccc3N(C)C2=O)c1` [L-365,260], at CCK2 (human) [1], the “Affinity at CCK2 receptors” value is given as “nanomolar” and the “Selectivity versus the CCK1 receptor” value is given as 140 fold. Moreover, in the data set with panic attacks, the Limiting panic attacks result is listed as “ineffective”. Moreover, the “Inhibition of gastrin-stimulated acid secretion” value in data set [2] was “only modest and short lasting inhibition”. For the same molecule, in data set [3], the Oral bioavailability entry was “poor”. Besides, in [4], the Aqueous solubility entry is recorded as “low”.
One may read the IC50 as the concentration needed to halve the response being measured. A word on the Kb: it is the equilibrium dissociation constant of an antagonist, usually derived from a functional assay. Broadly, the ED50 is the dose that gives a 50% effect, or the effect in half of the subjects. Regarding `CNc1cccc(NC(=O)N[C@H]2N=C(c3ccccn3)c3ccccc3N(CC(=O)C(C)(C)CO)C2=O)c1` [TR3], half-maximal inhibition on CCK1 (human) (IC50) required 8500 nM. The “Binding to other cellular and nuclear receptors (inhibition of ligand binding)” value in the data set with panel of 80 receptors is reported as “No significant receptor binding”. On CCK2 (human) [5], the “Selectivity IC50 (CCK1)/IC50 (CCK2)” value was 86, the “Selectivity KB (CCK1)/KB (CCK2)” value is on record as 108, the IC50 came to 99 nM and the Kb was found to be 12 nM. In data set [6] (compound 500 nM), the “Inhibition of the anti-proliferative effects of G17” value (from here on “Inhibition … of G17”) is given as “had the same effect”. In addition, in data set [7], the ED50 turned out to be 0.3 µmol/kg.
For orientation: AUC means the area under the concentration-time curve, a measure of exposure. The low end stands for low exposure, the high end for high exposure. One may read the AUC(0-t) as the area under the concentration-time curve up to a stated or last time point. A lower AUC(0-t) goes with less exposure. `CNc1cccc(NC(=O)N[C@@H]2N=C(c3ccccn3)c3ccccc3N(CC(=O)C(C)(C)CO)C2=O)c1` [TR2, (R)-1-[1-(4-Hydroxy-3,3-dimethyl-2-oxo-butyl)-2-oxo-5-pyridin-2-yl-2,3-dihydro-1H-benzo[e][1,4]diazepin-3-yl]-3-(3-methylamino-phenyl)-urea] had an IC50 against CCK1 (human) of 1000 nM. In addition, the “Binding to other cellular and nuclear receptors (inhibition of ligand binding)” value in the data set on panel of 80 receptors was “No significant receptor binding”. Besides, at CCK2 (human) [5], the “Selectivity IC50 (CCK1)/IC50 (CCK2)” value turned out to be 400, the “Selectivity KB (CCK1)/KB (CCK2)” value was determined as 484, the 50% inhibitory concentration (IC50) turned out to be 2.5 nM and the Kb stood at 0.31 nM. On CCK2 (human) [5] (relative to YF476), the “Affinity for the CCK2 receptor, fold lower than that of YF476” value is recorded as “about 5 fold” and the “Selectivity for CCK2 over CCK1 receptor, higher than the selectivity of YF476” value amounted to 30%. The “Potency in CCK2 assay, fold less potent than YF476 and YM022” value on CCK2 (human) [5] (relative to YF476 and YM022) is on record as “about 5 fold”. Besides, the “Affinity for the CCK2 receptor relative to YM022” value at CCK2 (human) [5] (relative to YM022) is reported as “twice that of YM022”. In addition, the “Inhibition … of G17” value in data set [6] (compound 100 nM) is given as “completely inhibited”. Moreover, in data set [8], the AUC came to 439 ng·h/mL, the AUC(0-t) stood at 242 ng·h/mL and the “Mean AUC0-24 h of plasma concentrations” value is 241.5 ng·h/mL. In data set [7], the ED50 turned out to be 0.03 µmol/kg.
By solubility is commonly meant the concentration that dissolves in the medium under given conditions. A high value points to a readily soluble substance. Consider `CNc1cccc(NC(=O)N[C@@H]2N=C(c3ccccn3)c3ccccc3N(CC(=O)C(C)(C)C)C2=O)c1` [YF476, reference compound], for which the “More selective for CCK2 receptors than for CCK1 receptors (compared with YM022)” value at CCK2 (human) [1] (Semple et al. 1997) is given as 5 fold. In addition, the IC50 on CCK1 (human) is 160 nM; at CCK2 (human) [5], 0.52 nM. For the same molecule, the solubility in data set [9] (pH 2.01, Britton-Robinson's buffer) amounted to 2650 µg/mL (≈ 5320 µM); in data set [9] (pH 3.06, Britton-Robinson's buffer) it was 99.7 µg/mL (≈ 200 µM); in data set [9] (pH 4.06, Britton-Robinson's buffer), 5.9 µg/mL (≈ 11.8 µM); in [9] (pH 5.08, Britton-Robinson's buffer), 1.4 µg/mL (≈ 2.81 µM); in [9] (pH 5.99, Britton-Robinson's buffer) it was 1.3 µg/mL (≈ 2.61 µM); in [9] (pH 6.98, Britton-Robinson's buffer), 1.4 µg/mL (≈ 2.81 µM). In data set [9] (pH 8.16, Britton-Robinson's buffer), this molecule yielded a solubility of 1.5 µg/mL (≈ 3.01 µM). Also, the “Selectivity IC50 (CCK1)/IC50 (CCK2)” value at CCK2 (human) [5] came out at 308. For the same molecule, the “Selectivity KB (CCK1)/KB (CCK2)” value at CCK2 (human) [5] turned out to be 375. At CCK2 (human) [5], the Kb was 0.064 nM. Also, the “Inhibition … of G17” value in data set [6] (compound 100 nM) was “completely inhibited”. Moreover, the AUC in data set [8] was 198 ng·h/mL. For the same molecule, in data set [8], the exposure AUC(0-t) turned out to be 81.3 ng·h/mL. The ED50 in data set [7] (subcutaneous injection, conscious rats) is 0.012 µmol/kg. Further, in [10], the “Increase of bioavailability by food” value was found to be 1.6 fold. Besides, the Serum concentrations result in data set [10] (crystalline form) is “extremely low and very variable”.
